Reference: patent US12195462B2, “Organic compound” (INTRA-CELLULAR THERAPIES, INC., priority 2018, dated 2025)

How the values were obtained:
[1] = tested on: patients with major depressive episodes; conditions: 40-minute infusion, total dose 0.5 mg/kg, after 24 hours; cited from earlier work
SERT = SERT (Homo sapiens (Human), UniProt P31645); assay: Binding, SERT
[2] = Rat PK studies of the compound of Example 3; conditions: Study One, IV 1 mg/kg
Mu opiate receptor = Mu opiate receptor (Homo sapiens (Human), UniProt P35372); assay: Receptor binding, Mu opiate receptor
[3] = Rat PK study of the compound of Example 2; assay type: in vivo
Experimental: (§1) Surgically modified rats are housed one per cage, and supplied with water and a commercial rodent diet ad libitum prior to study initiation. Food is withheld from the animals for a minimum of twelve hours before and during the study, until four hours post-dose, at which time food is returned. Animals are dosed IV, SC and PO, and blood samples are collected following the study design in the following table. Blood samples (˜0.25 mL) are collected via JVC or tail vein, placed into chilled blood collection tubes containing sodium heparin as the anticoagulant, and kept on ice until centrifugation. Blood samples are then centrifuged at a temperature of 2 to 8° C., at 3,000 g, for 5 minutes. Drug levels in the plasma samples are quantified via HPLC with MS/MS detection. Pharmacokinetic parameters based on the group geomean concentration versus time data, are calculated using a noncompartmental pharmaceutical data analysis software PK Solutions 2.0 (Summit Research Services, Montrose, Colo.).
This study is performed according to the same procedure as outlined in Example 5a, with the blood samples collected as shown in the table below.

[4] = tested on: patients with acute exacerbated schizophrenia; assay: Clinical studies of patients with acute exacerbated schizophrenia; assay type: in vivo; conditions: once daily 60 mg P.O., up to 28 days
From the text: Social avoidance can be a critical and debilitating symptom in patients suffering from anxiety disorders, especially social anxiety disorder, as well as in patients suffering from traumatic anxiety disorders. Social avoidance is often one of the key determinants of whether a person with a severe anxiety disorder is capable of maintaining familial relationships or employment relationships. […] Negative symptoms of schizophrenia can be divided into two categories: emotional experience (e.g., emotional withdrawal, passive social withdrawal, active social avoidance) and emotional expression (e.g., blunted effect, poor rapport, lack of spontaneity, and motor retardation). […] These are the symptoms that are most highly correlated with interpersonal functioning.

[5] = Rat PK study of the compound of Example 1; assay type: in vivo
Experimental: as §1

human D2S receptor [6] = biological target: T1, human D2S receptor (Homo sapiens (Human), UniProt P14416); assay: Cell-based functional cAMP assay, agonist signaling (inhibition of forskolin-stimulated cAMP)
human D2S receptor [7] = biological target: T1, human D2S receptor; assay: Cell-based functional cAMP assay, antagonist signaling (reversal of quinpirole inhibition)

Sequence of Mu opiate receptor (P35372 whole entry): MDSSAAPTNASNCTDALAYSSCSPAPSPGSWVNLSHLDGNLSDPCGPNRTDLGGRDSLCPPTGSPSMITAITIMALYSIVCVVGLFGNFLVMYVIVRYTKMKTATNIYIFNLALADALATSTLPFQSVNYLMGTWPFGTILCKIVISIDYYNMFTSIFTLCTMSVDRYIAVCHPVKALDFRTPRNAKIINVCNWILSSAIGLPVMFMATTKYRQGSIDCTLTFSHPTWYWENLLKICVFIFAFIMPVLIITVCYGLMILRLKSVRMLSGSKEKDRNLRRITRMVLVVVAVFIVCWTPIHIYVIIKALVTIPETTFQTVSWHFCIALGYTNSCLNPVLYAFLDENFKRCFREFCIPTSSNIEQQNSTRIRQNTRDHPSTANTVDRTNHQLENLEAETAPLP
T1 sequence (P14416 other isoform, or with tags, fused parts or gaps): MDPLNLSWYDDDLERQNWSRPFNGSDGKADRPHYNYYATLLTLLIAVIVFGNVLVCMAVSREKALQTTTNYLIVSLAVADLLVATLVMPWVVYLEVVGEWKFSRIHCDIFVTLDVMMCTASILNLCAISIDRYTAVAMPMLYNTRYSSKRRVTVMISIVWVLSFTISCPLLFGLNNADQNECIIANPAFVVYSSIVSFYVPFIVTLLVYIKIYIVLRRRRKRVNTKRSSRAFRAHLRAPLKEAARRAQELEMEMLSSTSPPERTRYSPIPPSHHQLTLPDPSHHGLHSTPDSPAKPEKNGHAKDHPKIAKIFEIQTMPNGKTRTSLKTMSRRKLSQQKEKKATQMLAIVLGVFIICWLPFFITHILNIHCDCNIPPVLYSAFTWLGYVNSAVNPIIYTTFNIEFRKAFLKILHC
Sequence of SERT (P31645 whole entry): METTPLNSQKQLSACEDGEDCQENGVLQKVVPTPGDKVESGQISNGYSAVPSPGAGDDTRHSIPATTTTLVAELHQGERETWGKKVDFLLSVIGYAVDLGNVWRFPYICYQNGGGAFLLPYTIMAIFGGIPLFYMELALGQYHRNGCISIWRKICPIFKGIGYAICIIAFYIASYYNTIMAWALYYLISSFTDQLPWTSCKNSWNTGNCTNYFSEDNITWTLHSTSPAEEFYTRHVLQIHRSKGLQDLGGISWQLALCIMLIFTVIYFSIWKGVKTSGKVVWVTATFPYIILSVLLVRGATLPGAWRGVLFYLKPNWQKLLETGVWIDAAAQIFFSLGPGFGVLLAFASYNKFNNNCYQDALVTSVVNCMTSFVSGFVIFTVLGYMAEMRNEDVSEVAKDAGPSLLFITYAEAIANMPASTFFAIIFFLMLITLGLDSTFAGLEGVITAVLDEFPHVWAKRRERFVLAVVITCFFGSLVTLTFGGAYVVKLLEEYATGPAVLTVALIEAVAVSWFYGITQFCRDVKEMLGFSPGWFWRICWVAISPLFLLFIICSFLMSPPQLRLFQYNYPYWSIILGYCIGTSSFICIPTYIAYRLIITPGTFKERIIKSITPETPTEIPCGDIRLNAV

CNC1(c2ccccc2Cl)CCCCC1=O (centres unmarked) [ketamine]
ratings on the Hamilton Depression Rating Scale (HDRS) compared to placebo [1]: significantly improved ratings

O=C1CN2c3c(cccc3[C@@H]3CN(CCCOc4ccc(F)cc4)CC[C@@H]32)N1 [Formula A, (6bR,10aS)-8-(3-(4-fluorophenoxy)propyl)-6b,7,8,9,10,10a-hexahydro-1H-pyrido[3′,4′:4,5]pyrrolo[1,2,3-de]quinoxalin-2(3H)-one]
SERT activity (in words) (SERT): relatively weak SERT antagonist | t-1/2 [2]: 1.1 h | mu-opiate activity (in words) (Mu opiate receptor): very strong mu-opiate antagonist

CN1CCN2c3c(cccc31)[C@@H]1CN(CCCC(=O)c3ccc(F)cc3)CC[C@@H]12 [Formula B, 4-((6bR,10aS)-3-methyl-2,3,6b,9,10,10a-hexahydro-1H-pyrido-[3′,4′:4,5]-pyrrolo[1,2,3-de]quinoxalin-8-(7H)-yl)-1-(4-fluorophenyl)-1-butanone]
t-1/2 ([3]; IV 1 mg/kg): 1.4 h | AUC ([3]; plasma, IV 1 mg/kg): 231 ng·h/mL | bioavailability ([3]; plasma, IV 1 mg/kg): 100% | concentration at 30 min ([3]; plasma, IV 1 mg/kg): 92.5 ng/mL | concentration at 6 h ([3]; plasma, IV 1 mg/kg): 3.1 ng/mL | concentration at 12 h ([3]; plasma, IV 1 mg/kg): 0.5 ng/mL | AUC ([3]; plasma, PO 10 mg/kg): 56 ng·h/mL | Cmax ([3]; plasma, PO 10 mg/kg): 13.8 ng/mL | bioavailability ([3]; plasma, PO 10 mg/kg): 2% | concentration at 30 min ([3]; plasma, PO 10 mg/kg): 12.2 ng/mL | concentration at 1 h ([3]; plasma, PO 10 mg/kg): 13.8 ng/mL | concentration at 6 h ([3]; plasma, PO 10 mg/kg): 1.5 ng/mL | concentration at 12 h ([3]; plasma, PO 10 mg/kg): 0.3 ng/mL | AUC ([3]; plasma, SC 45 mg/kg): 7630 ng·h/mL | Cmax ([3]; plasma, SC 45 mg/kg): 747 ng/mL | bioavailability ([3]; plasma, SC 45 mg/kg): 73% | concentration at 30 min ([3]; plasma, SC 45 mg/kg): 705 ng/mL | concentration at 1 h ([3]; plasma, SC 45 mg/kg): 700 ng/mL | concentration at 6 h ([3]; plasma, SC 45 mg/kg): 498 ng/mL | concentration at 12 h ([3]; plasma, SC 45 mg/kg): 168 ng/mL | concentration at 24 h ([3]; plasma, SC 45 mg/kg): 12.3 ng/mL | glutamatergic neurotransmission (NMDA and AMPA receptor conductance) (rat mPFC slices): enhances glutamatergic neurotransmission | symptoms of emotional experience compared to placebo [4]: significant and unexpected improvement in symptoms of emotional experience | SERT activity (in words) (SERT): very strong SERT antagonist | mu-opiate activity (in words) (Mu opiate receptor): no mu-opiate activity | Ki (Mu opiate receptor; Mu opiate receptor, read-out: Ki (nM) or maximum inhibition): > 10000 nM

CN1C(=O)CN2c3c(cccc31)[C@@H]1CN(CCCOc3ccc(F)cc3)CC[C@@H]12 [Compound 1, (6bR,10aS)-8-(3-(4-fluorophenoxy)propyl)-3-methyl-6b,7,8,9,10,10a-hexahydro-1H-pyrido[3′,4′:4,5]pyrrolo[1,2,3-de]quinoxalin-2(3H)-one]
t-1/2 ([5]; IV 1 mg/kg): 1.0 h | AUC ([5]; plasma, IV 1 mg/kg): 270 ng·h/mL | Cmax ([5]; plasma, IV 1 mg/kg): 505 ng/mL | bioavailability ([5]; plasma, IV 1 mg/kg): 100% | concentration at 30 min ([5]; plasma, IV 1 mg/kg): 116 ng/mL | concentration at 1 h ([5]; plasma, IV 1 mg/kg): 70 ng/mL | concentration at 6 h ([5]; plasma, IV 1 mg/kg): 1.6 ng/mL | AUC ([5]; plasma, PO 1 mg/kg): 22.6 ng·h/mL | Cmax ([5]; plasma, PO 1 mg/kg): 5 ng/mL | bioavailability ([5]; plasma, PO 1 mg/kg): 10% | concentration at 30 min ([5]; plasma, PO 1 mg/kg): 4.2 ng/mL | concentration at 1 h ([5]; plasma, PO 1 mg/kg): 2.9 ng/mL | concentration at 6 h ([5]; plasma, PO 1 mg/kg): 1.4 ng/mL | AUC ([5]; plasma, SC 1 mg/kg): 247 ng·h/mL | Cmax ([5]; plasma, SC 1 mg/kg): 34 ng/mL | bioavailability ([5]; plasma, SC 1 mg/kg): 90% | concentration at 30 min ([5]; plasma, SC 1 mg/kg): 23.6 ng/mL | concentration at 1 h ([5]; plasma, SC 1 mg/kg): 28.1 ng/mL | concentration at 6 h ([5]; plasma, SC 1 mg/kg): 12.8 ng/mL | concentration at 24 h ([5]; plasma, SC 1 mg/kg): 1.3 ng/mL | agonist activity at the D2S receptor (in words) (human D2S receptor [6]): no detectable agonist activity | Agonist EC50 (human D2S receptor [6]; CHO-K1 hD2S, 10 μM forskolin): no activity | antagonist activity at the D2S receptor (in words) (human D2S receptor [7]): antagonist activity
